According to article PMC4357465, “Tool Compounds Robustly Increase Turnover of an Artificial Substrate by Glucocerebrosidase in Human Brain Lysates” (PLoS ONE, 2015):
Where “and” joins values, the source holds several entries; their conditions need not be identical. Identical values can stand only once. Like-named read-outs stand apart in the source and are kept apart here.

Columns and labels:
Assay type in all cases: biochemical
purified human GBA1 = biological target: T1, purified human GBA1 (Homo sapiens, UniProt P04062); test: GBA1 enzymatic cell-free assay, turnover of 4MUG
T1 construct: purchased R&D Systems 7410-GH-10; host or cells: alternatively made in house: baculovirus (pFastBac-1), expressed in SF-9 or SF-21 cells, purified from conditioned media
T1 sequence (P04062 40-536): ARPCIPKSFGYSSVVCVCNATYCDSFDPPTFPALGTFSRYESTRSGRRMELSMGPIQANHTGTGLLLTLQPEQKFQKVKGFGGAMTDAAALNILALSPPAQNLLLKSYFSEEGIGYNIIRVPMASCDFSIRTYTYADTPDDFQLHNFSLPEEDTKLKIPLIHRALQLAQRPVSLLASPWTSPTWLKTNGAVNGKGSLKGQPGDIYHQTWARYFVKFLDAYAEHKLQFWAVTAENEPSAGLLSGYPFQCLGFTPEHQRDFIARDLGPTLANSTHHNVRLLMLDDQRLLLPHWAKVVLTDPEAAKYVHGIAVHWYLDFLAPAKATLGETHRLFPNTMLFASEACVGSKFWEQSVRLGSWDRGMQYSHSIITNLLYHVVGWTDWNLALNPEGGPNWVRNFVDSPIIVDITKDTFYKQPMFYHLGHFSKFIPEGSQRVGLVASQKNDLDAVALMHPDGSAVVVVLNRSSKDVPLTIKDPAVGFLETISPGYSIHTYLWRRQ
Description: After incubation, 100 μl of assay buffer was added to the plate. The assay buffer was composed of 0.1 M citric acid and 0.2 M sodium phosphate dibasic adjusted to pH = 5.4 unless stated otherwise (McIlvaine Buffer). […] For IC50 and EC50 experiments using compounds an assay buffer of pH 5.4 was used.
The substrate, 4-methylumbelliferyl β-D-glucopyranoside (4MUG, Sigma, M3633) was then added to the plate to a final concentration of 1.7 mM (25 μl). 4MUG was freshly solubilized in water at 37°C prior to each experiment. The recombinant protein, compound, assay buffer, and substrate were incubated at 37°C for 30 minutes.
The specific activity was calculated off the 4MU standard curve by converting the relative fluorescence units (RFUs) to the concentration of the fluorescent product (GraphPad Prism 5.1). This interpolated value was then used to calculate the specific activity of the recombinant protein which was expressed as nmol/hr/ng protein for recombinant protein and nmol/hr/mg for tissue lysates (GBA1 tissue assay). The standard curve was always diluted in the same assay buffer as the samples, including the same pH. For experiments testing activity of GBA1 at different pH, a standard curve for each pH condition was used to calculate specific activity. When testing different pH conditions, buffer solutions were adjusted to obtain the desired pH using the McIlvaine’s Buffer recipe, and the pH of the buffer was verified. All assay buffers used in the pH experiments contained sodium taurocholate to a final concentration of 3.1 mM.
In experiments directly comparing enzymatic activities of GBA1, GBA2 and GBA3 (S1 Fig., S2 Fig. c, d) the following conditions were used. […] A 10-fold intermediate solution of compound serial dilution was prepared in an assay buffer; half log dilutions were used. […] 2 mM solution of 4MUG was prepared in an assay buffer. To start the reaction, 4.5 μl/well of this solution was added to the enzyme plate and was incubated for 30 minutes at 37°C. To stop the reaction, a 1M glycine solution, adjusted to pH = 10 using 1M NaOH was used. […] To test the effect of sodium taurocholate (Sigma, T4009), the assay was performed using the same procedure described in this paragraph. The assay buffer contained either 0mM (same as above), 3 mM, 7 mM or 20 mM Sodium Taurocholate.

[1] = biological target: T2, GBA1 in lysates from human cortex (Homo sapiens, UniProt P04062); test: GBA1 tissue assay, 4MUG turnover in human cortex lysates; settings: human cortex lysate 10 μg, with sodium taurocholate
T2 construct: Human cortex samples were obtained from deceased aged Caucasian subjects without any diagnosis of neurodegenerative disorders; tissue Tissue Solutions; Proteogenex; host or cells: human cortex (post mortem)
T2 sequence (P04062 40-536): T1 sequence (P04062 40-536)
Description: (§1) Brain lysates were prepared by mechanical homogenization of mouse brain and human cortex in 10x weight/volume of the homogenization buffer used in the GBA1 enzymatic cell-free assay (250 mM Sucrose, 10 mM Tris pH = 7.5, 1 mM EDTA, 0.25% Triton X-100 solution, protease inhibitors, phosphatase inhibitors I and III, PMSF). Human cortex was acquired from brain banks (Tissue Solutions: http://www.tissue-solutions.com; Proteogenex: http://www.proteogenex.com). Human cortex samples were obtained from deceased aged Caucasian subjects without any diagnosis of neurodegenerative disorders. Mouse brain was obtained from 4–7 month old C57BL/6J mice. All mouse experiments were performed in accordance with the specifications of both the National Institutes of Health Guide for the Care and Use of Laboratory Animals, studies were approved by Pfizer’s Internal Animal Care and Use Committee (IACUC).
(§2) Prior to 30 min lysis on ice, human brain samples were also sonicated for 15 seconds as this step was needed to fully extract GBA1 (data not shown). Samples were then centrifuged at 20,000g for 15 minutes at 4°C. Supernatant was collected, and used for activity assays and Western blots. Protein concentration was determined using the Pierce BCA protein assay kit. Tissue lysates and pellets were stored at -80°C until use. For enzymatic activity assays, lysates were subjected only to one free-thaw cycle. Independent replicates were obtained using brain lysates from either different human subjects or different mice.
(§3) GBA1 activity in tissues was measured using the assay conditions described in the previous section. 10 μg of protein/well was used for the activity experiments, unless stated otherwise. Brain tissue lysates were diluted to 0.4 μg/ μl of protein in the same homogenization buffer, as described above. 25 μl of diluted lysate was added to the plate (Costar, 7200567). Lysates were then incubated on ice in the presence or absence of a compound for 30 minutes. 100 μl of assay buffer was then added to the plate. The same assay buffer was used as in the cell free/recombinant experiments and processed as described above.

[2] = tested on: GBA1 in lysates from human cortex; test: as above; settings: human cortex lysate 10 μg, without sodium taurocholate
Description: as §1, §2, §3

| inhibition at 1 µM (purified human GBA1; read-out: inhibition of GBA1 activity) [%] | inhibition at 1 µM (purified human GBA1; with sodium taurocholate, read-out: GBA1 % inhibition + NaTc) [%] | inhibition at 1 µM (purified human GBA1; without sodium taurocholate, read-out: GBA1 % inhibition - NaTc) [%] | % inhibition + NaTc ([1]; 1 μM) | inhibition at 1 µM ([1]; 1 μM, read-out: % inhibition + NaTc) [%] | inhibition of GBA1 activity (purified human GBA1; 1 mM) | % inhibition + NaTc ([1]; 1mM) | Compound | % inhibition - NaTc ([2]; 1 μM) [%] | % inhibition - NaTc ([2]; 1 μM, listed as isofagomine) | % inhibition - NaTc ([2]; 1mM) |
| --- | --- | --- | --- | --- | --- | --- | --- | --- | --- | --- |
| > 90 | 95.9 ± 3.2 | 92.1 ± 2.3 | ~ 90% | 92 ± 2 |  |  | OC[C@H]1CNC[C@@H](O)[C@@H]1O [Isofagomine, isofagomine] | 27 ± 4 | ~ 30% |  |
|  |  |  |  |  | more than 90% | 86 ± 4% and ~ 90% | O[C@H]1[C@H](O)[C@@H](O)[C@@H]2O[C@@H]2[C@@H]1O [CBE] |  |  | 31 ± 8% and ~ 30% |
